Experimental data: patent US9115380B2, “Kits and methods for generating 5′ capped RNA” (priority 2006, dated 2015)
“Also recorded” adds a separate entry of the source. Where two headings read alike, the source gives them in different places.

Key:
[1] = target: vaccinia capping enzyme (Vaccinia virus, UniProt P04298); assay type: biochemical
[2] = test system: wheat germ lysate; assay type: biochemical; conditions: wheat germ lysate, poly(A)-tailed Renilla luciferase RNA, cap I structure
[3] = test system: rabbit reticulocyte lysate; assay type: biochemical; conditions: rabbit reticulocyte lysate
[4] = target: RNA guanyltransferase activity of the vaccinia capping enzyme system (Vaccinia virus, UniProt P04298); conditions: cited from earlier work
[5] = test system: BDCM cells; assay type: cell-based; conditions: poly(A)-tailed Renilla luciferase RNA

| Structure (SMILES) | substrate for the capping enzyme system (51-base primary RNA transcript converted into 52-base capped RNA) [1] | use in place of GTP in an in vitro capping reaction [4] | further results |
| --- | --- | --- | --- |
| Nc1nc2c(ncn2[C@H]2CC[C@@H](COP(=O)(O)OP(=O)(O)OP(=O)(O)O)O2)c(=O)[nH]1 [2′,3′-ddGTP, 2′,3′-dideoxy-GTP, reference compound] | not substrates for the capping enzyme system; also recorded: not a substrate for the capping enzyme system | – | – |
| Nc1nc2c(ncn2[C@H]2C[C@H](N)[C@@H](COP(=O)(O)OP(=O)(O)OP(=O)(O)O)O2)c(=O)[nH]1 [3′-amino-2′,3′-ddGTP, 3′-amino-2′,3′-dideoxyguanosine-5′-triphosphate] | substrates for the capping enzyme system | – | – |
| [N-]=[N+]=N[C@H]1C[C@H](n2cnc3c(=O)[nH]c(N)nc32)O[C@@H]1COP(=O)(O)OP(=O)(O)OP(=O)(O)O [3′-azido-2′,3′-ddGTP, 3′-azido-2′,3′-dideoxyguanosine-5′-triphosphate] | substrates for the capping enzyme system | – | – |
| Nc1nc2c(ncn2[C@@H]2O[C@H](COP(=O)(O)OP(=O)(O)OP(=O)(O)O)C[C@H]2O)c(=O)[nH]1 [3′-dGTP, 3′-deoxyguanosine-5′-triphosphate] | – | – | relative translation efficiency [2]: 31%; average relative translation efficiency ([3]; poly(A)-tailed Renilla luciferase RNA, cap 0 structure, GTP-capped cap 0 RNA = 100%): 80%; average relative translation efficiency ([3]; poly(A)-tailed Renilla luciferase RNA, cap I structure): 64%; average relative translation efficiency ([3]; poly(A)-tailed firefly luciferase RNA, cap I structure): 98% |
| Nc1nc2c(ccn2[C@@H]2O[C@H](COP(=O)(O)OP(=O)(O)OP(=O)(O)O)[C@@H](O)[C@H]2O)c(=O)[nH]1 [7-deaza-GTP, reference compound] | not substrates for the capping enzyme system | – | – |
| Nc1ncnc2c1ncn2[C@@H]1O[C@H](COP(=O)(O)OP(=O)(O)OP(=O)(O)O)[C@@H](O)[C@H]1O [ATP, reference compound] | not substrates for the capping enzyme system | could not be used in place of GTP | – |
| Nc1ccn([C@@H]2O[C@H](COP(=O)(O)OP(=O)(O)OP(=O)(O)O)[C@@H](O)[C@H]2O)c(=O)n1 [CTP] | – | could not be used in place of GTP | – |
| Nc1nc2c(ncn2[C@@H]2O[C@H](COP(=O)(O)OP(=O)(O)O)[C@@H](O)[C@H]2O)c(=O)[nH]1 [GDP] | – | could not be used in place of GTP | – |
| Nc1nc2c(ncn2[C@@H]2O[C@H](COP(=O)(O)O)[C@@H](O)[C@H]2O)c(=O)[nH]1 [GMP] | – | could not be used in place of GTP | – |
| O=c1[nH]cnc2c1ncn2[C@@H]1O[C@H](COP(=O)(O)OP(=O)(O)OP(=O)(O)O)[C@@H](O)[C@H]1O [ITP] | – | could not be used in place of GTP | – |
| Cn1c[n+]([C@@H]2O[C@H](COP(=O)(O)OP(=O)([O-])OP(=O)(O)O)[C@@H](O)[C@H]2O)c2nc(N)[nH]c(=O)c21 [N^7-methyl-GTP, reference compound] | not substrates for the capping enzyme system | could not be used in place of GTP | – |
| O=c1ccn([C@@H]2O[C@H](COP(=O)(O)OP(=O)(O)OP(=O)(O)O)[C@@H](O)[C@H]2O)c(=O)[nH]1 [UTP] | – | could not be used in place of GTP | – |
| CO[C@H]1[C@@H](O)[C@H]([n+]2cn(C)c3c(=O)[nH]c(N)nc32)O[C@@H]1COP(=O)([O-])OP(=O)(O)OP(=O)(O)OC[C@H]1O[C@@H](n2cnc3c(=O)[nH]c(N)nc32)[C@H](O)[C@@H]1O [m2^7,3′-OGpppG, reference compound] | – | – | relative translation efficiency ([5]; cap 0 structure, GTP-capped cap 0 RNA = 100%): 130%; relative translation efficiency ([5]; cap I structure, GTP-capped RNA = 100%): 102% |
